Measured values from paper PMC6345968, “Structural basis for species-selective targeting of Hsp90 in a pathogenic fungus” (Nature Communications, 2019).
Several values for one entry are separate records, joined by “and”; a condition that tells them apart may be missing. Identical values can stand only once. Like-named read-outs stand apart in the source and are kept apart here.

Experiments:
[1] = target: T1, C. albicans Hsp90 NBD (Candida albicans, UniProt P46598); assay: biochemical; type: binding; conditions: 0.1 nM Cy3-GdA, C. albicans NBD-Hsp90 (10 nM)
T1 construct: C. albicans Hsp90 (E7-K218); made in house; host or cells: E. coli Rosetta2

[2] = target: T2, Hsp90 in C. albicans (SC5314) lysate (Candida albicans, UniProt P46598); assay: biochemical; type: binding; conditions: for FP signal: raw
T2 construct: endogenous in cells; host or cells: C. albicans SC5314 whole-cell lysate

[3] = tested on: Hsp90 in 3T3 lysate; assay: FP competition in whole-cell lysate; type: binding, mouse; conditions: 3T3 lysate
Procedure: After vortexing, cell lysate was frozen at −80 °C for 2 h, followed by thawing on ice. The vortex-freeze-thaw step was repeated. […] Aliquots were thawed immediately prior to use.

[4] = tested on: Hsp90 in HEPG2 lysate; conditions: for FP signal / FP signal (raw): HepG2 lysate; for FP signal: raw
[5] = target: human Hsp90 NBD (Homo sapiens, UniProt P08238); conditions: 0.1 nM Cy3-GdA, Human NBD-Hsp90 (10 nM); for FP signal (raw) / FP signal as fraction of no-compound (0 uM) control: Experiments 1-3
[6] = target: human Grp94 NBD (Homo sapiens, UniProt P14625); conditions: 0.1 nM Cy3-GdA, Experiments 1-3
[7] = read-out: FP signal, fraction of control
[8] = Experiments 1-3, one value per experiment

Chain of human Hsp90 NBD (P08238 1-223): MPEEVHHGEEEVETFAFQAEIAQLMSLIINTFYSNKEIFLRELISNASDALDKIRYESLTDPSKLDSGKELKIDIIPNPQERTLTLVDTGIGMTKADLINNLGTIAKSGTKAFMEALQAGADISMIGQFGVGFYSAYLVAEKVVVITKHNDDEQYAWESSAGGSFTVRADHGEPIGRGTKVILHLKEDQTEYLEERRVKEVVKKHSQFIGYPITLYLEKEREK
Chain of human Grp94 NBD (P14625 63-337): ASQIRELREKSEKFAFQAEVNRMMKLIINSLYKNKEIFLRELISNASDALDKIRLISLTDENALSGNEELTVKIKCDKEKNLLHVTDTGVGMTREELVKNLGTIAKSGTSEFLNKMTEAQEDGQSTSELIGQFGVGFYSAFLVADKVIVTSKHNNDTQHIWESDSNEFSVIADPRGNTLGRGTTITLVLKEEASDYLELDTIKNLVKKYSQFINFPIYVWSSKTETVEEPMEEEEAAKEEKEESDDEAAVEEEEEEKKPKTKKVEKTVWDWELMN
T1 sequence (P46598 7-218): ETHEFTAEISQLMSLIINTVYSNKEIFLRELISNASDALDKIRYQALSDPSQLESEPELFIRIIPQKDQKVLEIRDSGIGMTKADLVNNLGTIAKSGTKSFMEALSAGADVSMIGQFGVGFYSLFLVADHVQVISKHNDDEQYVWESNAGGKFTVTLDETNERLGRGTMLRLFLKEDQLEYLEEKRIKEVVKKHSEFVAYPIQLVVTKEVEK
T2 sequence (P46598 whole entry): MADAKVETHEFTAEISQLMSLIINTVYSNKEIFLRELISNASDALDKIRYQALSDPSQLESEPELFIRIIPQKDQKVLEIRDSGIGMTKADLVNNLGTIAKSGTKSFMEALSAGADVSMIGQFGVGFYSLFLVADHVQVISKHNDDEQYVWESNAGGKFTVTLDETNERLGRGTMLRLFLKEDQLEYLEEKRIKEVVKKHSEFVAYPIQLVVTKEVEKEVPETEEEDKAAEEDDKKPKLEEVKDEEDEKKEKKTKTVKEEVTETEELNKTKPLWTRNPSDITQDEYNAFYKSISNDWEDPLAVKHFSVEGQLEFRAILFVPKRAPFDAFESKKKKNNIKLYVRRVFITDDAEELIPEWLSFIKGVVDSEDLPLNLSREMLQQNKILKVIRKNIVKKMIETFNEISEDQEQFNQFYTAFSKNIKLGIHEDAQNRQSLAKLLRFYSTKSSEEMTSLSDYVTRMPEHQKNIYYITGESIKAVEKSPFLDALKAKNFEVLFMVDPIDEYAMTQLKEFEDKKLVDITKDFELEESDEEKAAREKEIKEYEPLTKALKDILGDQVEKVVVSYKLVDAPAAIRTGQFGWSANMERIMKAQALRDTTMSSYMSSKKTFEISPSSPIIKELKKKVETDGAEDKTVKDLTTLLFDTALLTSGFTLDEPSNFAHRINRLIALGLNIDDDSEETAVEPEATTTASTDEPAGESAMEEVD

For `COC1=C2C[C@@H](C)C[C@H](OC)[C@H](O)[C@@H](C)/C=C(\C)[C@H](OC(N)=O)[C@@H](OC)/C=C\C=C(/C)C(=O)NC(=CC1=O)C2=O` [geldanamycin, reference compound], the “FP signal (raw)” value ([1]; Cmpd 0.002 uM, Experiments 1-3) was 98, the remaining activity at 0.002 µM ([1]; Cmpd 0.002 uM, Experiments 1-3, read-out: FP signal as fraction of no-compound (0 uM) control) was 98% and the “FP signal (raw)” value ([1]; Cmpd 0.004 uM, Experiments 1-3) was 97. The remaining activity at 0.004 µM ([1]; Cmpd 0.004 uM, Experiments 1-3, read-out: FP signal as fraction of no-compound (0 uM) control) was 95.5%, the “FP signal (raw)” value ([1]; Cmpd 0.008 uM, Experiments 1-3) was 92 and the remaining activity at 0.008 µM ([1]; Cmpd 0.008 uM, Experiments 1-3, read-out: FP signal as fraction of no-compound (0 uM) control) was 94.4%. For the same molecule, the remaining activity at 0.016 µM ([1]; Cmpd 0.016 uM, Experiments 1-3, read-out: FP signal as fraction of no-compound (0 uM) control) was 87%, the remaining activity at 0.25 µM ([1]; Cmpd 0.25 uM, Experiments 1-3, read-out: FP signal as fraction of no-compound (0 uM) control) was 18.6% and the “FP signal (raw)” value ([1]; Cmpd 0.5 uM, Experiments 1-3) was 18 and 19 and 10. The remaining activity at 0.5 µM ([1]; Cmpd 0.5 uM, Experiments 1-3, read-out: FP signal as fraction of no-compound (0 uM) control) was 10.2%, the remaining activity at […] ([1]; Cmpd […], Experiments 1-3, read-out: FP signal as fraction of no-compound (0 uM) control) was 71.3% and the “Rel. to GdA” value ([2]; EC50 relative to GdA, SC5314 lysate) was 1. For the same molecule, the FP signal ([2]; SC5314 lysate, 0.457 nM compound) was 205, the “FP signal (raw)” value ([2]; SC5314 lysate, 0.457 nM, listed as GdA) was 205 and the FP signal ([2]; SC5314 lysate, 1.372 nM compound) was 198. For the same molecule, the “FP signal (raw)” value ([2]; SC5314 lysate, 1.372 nM, listed as GdA) was 198 and 206, the remaining activity at 0.002 µM ([2]; SC5314 lysate, 0.002 uM, read-out: FP signal, fraction of control) was 96.8% and the remaining activity at 0.004 µM ([2]; SC5314 lysate, 0.004 uM, read-out: FP signal, fraction of control) was 95.7%. The remaining activity at […] ([2]; SC5314 lysate, 0.031 uM, read-out: FP signal, fraction of control) was 59.4%, the FP signal ([2]; SC5314 lysate, 37.037 nM compound) was 78 and the “FP signal (raw)” value ([2]; SC5314 lysate, 37.037 nM, listed as GdA) was 78 and 81. For the same molecule, the “FP signal (raw)” value ([2]; SC5314 lysate, 0.063 uM) was 48, the remaining activity at 0.063 µM ([2]; SC5314 lysate, 0.063 uM, read-out: FP signal, fraction of control) was 25.7% and the FP signal ([2]; SC5314 lysate, 111.111 nM compound) was 47. For the same molecule, the “FP signal (raw)” value ([2]; SC5314 lysate, 111.111 nM, listed as GdA) was 47 and 43, the “FP signal (raw)” value ([2]; SC5314 lysate, 0.25 uM) was 2 and the remaining activity at 0.25 µM ([2]; SC5314 lysate, 0.25 uM, read-out: FP signal, fraction of control) was 1.07%. The “FP signal (raw)” value ([2]; SC5314 lysate, 333.333 nM) was 33, the FP signal ([2]; SC5314 lysate, 333.333 nM compound) was 33 and the “FP signal (raw)” value ([2]; SC5314 lysate, 0.5 uM) was -7. The remaining activity at 0.5 µM ([2]; SC5314 lysate, 0.5 uM, read-out: FP signal, fraction of control) was -3.74%, the “FP signal (raw)” value ([2]; SC5314 lysate, 1 uM) was -4 and the “FP signal (raw)” value ([2]; SC5314 lysate, 1000 nM) was 30. For the same molecule, the FP signal ([2]; SC5314 lysate, 1000 nM compound) was 30, the “FP signal (raw)” value ([2]; SC5314 lysate, 2 uM) was -6 and the remaining activity at 2 µM ([2]; SC5314 lysate, 2 uM, read-out: FP signal, fraction of control) was -3.21%. For the same molecule, the FP signal ([2]; SC5314 lysate, 3000 nM compound) was 30, the “FP signal (raw)” value ([2]; SC5314 lysate, 3000 nM, listed as GdA) was 30 and 28 and the remaining activity at 0.008 µM [2, 7] was 91.4%. The remaining activity at 0.016 µM [2, 7] was 79.1%, the remaining activity at 1 µM [2, 7] was -2.14% and the “FP signal (raw)” value ([3]; 0.002 uM) was 254. The “FP signal (raw)” value ([3]; 0.004 uM) was 250, the “FP signal (raw)” value ([3]; 0.008 uM) was 250 and the “FP signal (raw)” value ([3]; 0.016 uM) was 252. For the same molecule, the “FP signal (raw)” value ([3]; 0.063 uM) was 213, the “FP signal (raw)” value ([3]; 0.25 uM) was 76 and the “FP signal (raw)” value ([3]; 0.5 uM) was 34. For the same molecule, the “FP signal (raw)” value ([3]; 1 uM) was 23, the “Rel. to GdA” value ([4]; EC50 relative to GdA, HEPG2 lysate) was 1 and the FP signal ([4]; 37.037 nM compound) was 93. For the same molecule, the “FP signal (raw)” value ([4]; 37.037 nM, listed as GdA) was 93, the FP signal ([4]; 111.111 nM compound) was 59 and the “FP signal (raw)” value ([4]; 111.111 nM, listed as GdA) was 59 and 55. For the same molecule, the “FP signal (raw)” value ([4]; 0.25 uM) was 27, the FP signal ([4]; 333.333 nM compound) was 40 and the “FP signal (raw)” value ([4]; 333.333 nM, listed as GdA) was 40 and 41. For the same molecule, the “FP signal (raw)” value ([4]; 0.5 uM) was 9, the “FP signal (raw)” value ([4]; 1 uM) was 5 and the FP signal ([4]; 1000 nM compound) was 35. The “FP signal (raw)” value ([4]; 1000 nM, listed as GdA) was 35 and 32, the “FP signal (raw)” value ([4]; 2 uM) was -5 and the FP signal ([4]; 3000 nM compound) was 30. The “FP signal (raw)” value ([4]; 3000 nM, listed as GdA) was 30 and 27.
`COc1ccc(CON=C2C=CC=CC3OC3CC(C)OC(=O)c3c(O)cc(O)cc3C2)cc1` (mixture of isomers) [LEB075] was tested, and the EC50 [1, 8] was 82.3 nM and 83.8 nM, the “FP signal (raw)” value ([1]; Cmpd 0.002 uM, Experiments 1-3) was 109 and 127 and the “FP signal as fraction of no-compound (0 uM) control” value ([1]; Cmpd 0.002 uM, Experiments 1-3) was 0.6412 and 0.7471. The “FP signal (raw)” value ([1]; Cmpd 0.004 uM, Experiments 1-3) was 109, the “FP signal as fraction of no-compound (0 uM) control” value ([1]; Cmpd 0.004 uM, Experiments 1-3) was 0.6412 and 0.6941 and the “FP signal (raw)” value ([1]; Cmpd 0.008 uM, Experiments 1-3) was 101 and 104. For the same molecule, the “FP signal as fraction of no-compound (0 uM) control” value ([1]; Cmpd 0.008 uM, Experiments 1-3) was 0.5941 and 0.6118, the “FP signal (raw)” value ([1]; Cmpd 0.016 uM, Experiments 1-3) was 93 and 101 and the “FP signal as fraction of no-compound (0 uM) control” value ([1]; Cmpd 0.016 uM, Experiments 1-3) was 0.5471 and 0.5941. The “FP signal (raw)” value ([1]; Cmpd 0.063 uM, Experiments 1-3) was 72 and 79, the “FP signal as fraction of no-compound (0 uM) control” value ([1]; Cmpd 0.063 uM, Experiments 1-3) was 0.4235 and 0.4647 and the “FP signal (raw)” value ([1]; Cmpd 0.25 uM, Experiments 1-3) was 38 and 42. The “FP signal as fraction of no-compound (0 uM) control” value ([1]; Cmpd 0.25 uM, Experiments 1-3) was 0.2235 and 0.2471, the “FP signal (raw)” value ([1]; Cmpd 0.5 uM, Experiments 1-3) was 24 and 26 and the “FP signal as fraction of no-compound (0 uM) control” value ([1]; Cmpd 0.5 uM, Experiments 1-3) was 0.1412 and 0.1529. The “FP signal (raw)” value ([1]; Cmpd 1 uM, Experiments 1-3) was 15 and 17, the “FP signal as fraction of no-compound (0 uM) control” value ([1]; Cmpd 1 uM, Experiments 1-3) was 0.1 and 0.08824 and the “FP signal (raw)” value ([1]; Cmpd 2 uM, Experiments 1-3) was 20. For the same molecule, the “FP signal as fraction of no-compound (0 uM) control” value ([1]; Cmpd 2 uM, Experiments 1-3) was 0.1176, the EC50 [5, 8] was 1650 nM and 1630 nM and the “FP signal (raw)” value ([5]; Cmpd 0.002 uM) was 147 and 148. The “FP signal as fraction of no-compound (0 uM) control” value ([5]; Cmpd 0.002 uM) was 0.98 and 0.9737, the “FP signal (raw)” value ([5]; Cmpd 0.004 uM) was 148 and 151 and the “FP signal as fraction of no-compound (0 uM) control” value ([5]; Cmpd 0.004 uM) was 0.9867 and 0.9934. For the same molecule, the “FP signal (raw)” value ([5]; Cmpd 0.008 uM) was 149, the “FP signal as fraction of no-compound (0 uM) control” value ([5]; Cmpd 0.008 uM) was 0.9933 and 0.9803 and the “FP signal (raw)” value ([5]; Cmpd 0.016 uM) was 150 and 149. For the same molecule, the “FP signal as fraction of no-compound (0 uM) control” value ([5]; Cmpd 0.016 uM) was 1 and 0.9803, the “FP signal (raw)” value ([5]; Cmpd 0.063 uM) was 147 and 150 and the “FP signal as fraction of no-compound (0 uM) control” value ([5]; Cmpd 0.063 uM) was 0.98 and 0.9868. The “FP signal (raw)” value ([5]; Cmpd 0.25 uM) was 141 and 143, the “FP signal as fraction of no-compound (0 uM) control” value ([5]; Cmpd 0.25 uM) was 0.94 and 0.9408 and the “FP signal (raw)” value ([5]; Cmpd 0.5 uM) was 130. For the same molecule, the “FP signal as fraction of no-compound (0 uM) control” value ([5]; Cmpd 0.5 uM) was 0.8667 and 0.8553, the “FP signal (raw)” value ([5]; Cmpd 1 uM) was 112 and 106 and the “FP signal as fraction of no-compound (0 uM) control” value ([5]; Cmpd 1 uM) was 0.7067 and 0.7368. For the same molecule, the “FP signal (raw)” value ([5]; Cmpd 2 uM) was 58 and 61, the “FP signal as fraction of no-compound (0 uM) control” value ([5]; Cmpd 2 uM) was 0.4067 and 0.3816 and the “FP signal (raw)” value ([6]; Cmpd 0.002 uM) was 157. The “FP signal (raw)” value ([6]; Cmpd 0.004 uM) was 159, the “FP signal (raw)” value ([6]; Cmpd 0.008 uM) was 150 and the “FP signal (raw)” value ([6]; Cmpd 0.016 uM) was 147. The “FP signal (raw)” value ([6]; Cmpd 0.063 uM) was 136 and the “FP signal (raw)” value ([6]; Cmpd 0.25 uM) was 109.
